Assay results taken from patent publication US10150969B2, “Methods and compositions to regulate plant transformation susceptibility” (priority 2010, dated 2018).

Tests used:
Arabidopsis roots = conditions: kinetin applied during infection; Agrobacterium tzs mutant; Hwang et al., 2010; cited from earlier work
[1] = tested on: Arabidopsis root segments; conditions: Col-0 and Bl-1 root segments, 24 h, 1.4 μM trans-zeatin
Description: Root segments of Arabidopsis Bl-1 and MTF-RNAi lines were incubated with A. tumefaciens A208 containing pJZ383 (Ptac::GFP). Root segments were co-cultivated with 10^5 cfu/mL (ecotype Columbia) or 10^8 cfu/mL (ecotype Bl-1) for 24 h in B5 minimal medium. Root segments were rinsed and visualized by epifluorescence microscopy.
Agrobacterium attachment assays were conducted as described herein. Col-0 and Bl-1 root segments were co-cultivated with A281 at 10^6 or 10^8 cfu/mL, respectively, for 24 h in the presence or absence of 1.4 μM trans-zeatin.

[2] = tested on: Arabidopsis root segments; conditions: A. tumefaciens A348 or A281 (no TZS), 1.4 or 14 μM trans-zeatin
Description: Neither of these strains harbors TZS. Trans-zeatin concentrations representing the range secreted by nopaline-type A. tumefaciens strains were used.
A. tumefaciens was cultured in Yeast Extract-Peptone medium (Lichtenstein et al., 1986) containing the appropriate antibiotics. Root transformation assays were carried out as previously described by Nam et al. with minor modifications (Tenea et al., 2009). MS basal medium lacking phytohormones was used to select for tumors. GUS activity assays were carried out after infection of root segments with A. tumefaciens At849 (Narasimhulu et al., 1996) for 4-6 d, using X-gluc (Jefferson et al., 1987).
(§1) Roots were infected with bacteria at 10^6 cfu/mL (Col-0) or 10^8 cfu/mL (Bl-1). Following infection, root segments were either transferred to MS basal medium containing 100 μg/mL Timentin and incubated for 4-5 weeks before recording the percentage of root segments developing tumors, or used for RNA isolation.

MTF = conditions: Col-0 and Bl-1 root segments treated for two days with trans-zeatin
Description: Real-time RT-PCR was carried out using total RNA isolated in triplicate from roots of plants grown in liquid B5 medium. PCR was performed in triplicate on an ABI Prism 7500 Sequence Detection System (Applied Biosystems, Foster City, Calif.). Expression levels were calculated by the relative standard curve method (Applied Biosystems) for all transcripts except ORA59, where the comparative cycle threshold method (Applied Biosystems) was used, and normalized to Actin2 transcript levels.
as §1

| SMILES | susceptibility of roots to transformation (Arabidopsis roots) | attachment of A. tumefaciens A281 [1] | increase in transformation efficiency ([2]; Col-0 roots, percentage of root segments developing tumors) | increase in susceptibility ([2]; ecotype Bl-1 roots) | decrease of MTF transcript levels (MTF) |
| --- | --- | --- | --- | --- | --- |
| c1coc(CNc2ncnc3[nH]cnc23)c1 [kinetin] | increased the susceptibility | – | – | – | – |
| C/C(=C\CNc1ncnc2nc[nH]c12)CO [trans-zeatin] | – | increased attachment | 4-8 fold | 2-3 fold | 30-60% |
